Like-named read-outs stand apart in the source and are kept apart here.
Key:
[1] = system: MT4 cells; assay: Cytotoxicity test; type: cell-based; conditions: for CC50: Figure 7; for СС50 (MT4): Table S12, nine days
Procedure: (§1) Green monkey kidney (Vero, Beach, FL, USA) cell line was maintained in 2 × Eagle MEM (“Chumakov FSC R&D IBP RAS”, Russia) with 5% FBS with L-glutamine, penicillin and streptomycin. […] HIV-1 strain NL4-3 was obtained via cell transfection with pNL4-3 3 (ARP2006, NIBSC, Potters Bar, UK).
(§2) MT4 cell suspensions were added to the wells with compound dilutions and DMSO control (approx. 2 × 10^4 cells per well). […] All experimental procedures were performed in two replicates and were repeated two to four times. Mean and SD were calculated with OriginPro 8 (OriginLab, St. Louis, MO, USA).

[2] = system: HIV-1 LTR-III G-quadruplex (FAM/TAMRA-labeled LTR-III); assay: FRET melting assay, LTR-III G4; type: binding; conditions: for LTR-III ΔTm: Table S1 primary screening, ligand:ODN 50:1, singlicate; for LTR-III (average): Table S12, average stabilization; for LTR III stabilization: Figure 7, stabilization group
How it was run: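 Melting is followed by FAM fluorescence (ex 495/em 520 nm) while heating at 1 °C/min from 30 to 95 °C. Labelled ODN at 0.5 μM, pre-annealed in 10 mM Li cacodylate, 100 mM KCl, pH 7.4, mixed with ligand at 50:1 (25 μM), or 20:1 and 2:1 for titration. ΔTm is relative to the 0.25% DMSO buffer control.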

[3] = Cytotoxicity test; type: cell-based; conditions: human, Figure 7
Procedure: as §1, §2

[4] = system: HIV-1 strain NL4-3 in MT4 cells; assay: Cytopathic effect inhibition test; type: cell-based; conditions: HIV-1 NL4-3, MT4 cells
Procedure: Human T cell leukemia (MT4) cell line was maintained in RPMI-1640 (“Chumakov FSC R&D IBP RAS”, Moscow, Russia) with 10% of fetal bovine serum (FBS, Invitrogen, Waltham, MA, USA), L-glutamine and gentamicin. Green monkey kidney (Vero, Beach, FL, USA) cell line was maintained in 2 × Eagle MEM (“Chumakov FSC R&D IBP RAS”, Russia) with 5% FBS with L-glutamine, penicillin and streptomycin. Cell cultures were incubated in the present of 5% CO2 at 37 °C. HIV-1 strain NL4-3 was obtained via cell transfection with pNL4-3 3 (ARP2006, NIBSC, Potters Bar, UK).
Eight two-fold dilutions of stock solutions of the compounds in two replicates were prepared in RPMI-1640 (“Chumakov FSC R&D IBP RAS”, Russia). Compound dilutions were mixed with equal volumes of the virus suspension containing 100 CCID50 (50% tissue culture infectious dose). Control cells were treated with the same sequential concentrations of DMSO as in compound dilutions. Then, the MT4 cell suspension (approx. 2 × 10^4 cells per well) in RPMI-1640 containing 10% FBS (Invitrogen, South America) was added to experimental mixtures. A final concentration series started from 25 μM. Each experiment contained virus dose titration in the inoculate to assure the acceptable dose-range. After a nine-day incubation (5% CO2, at 37 °C), cytopathic effect (CPE) was visually accessed via microscope. EC50 values were calculated according to the Karber method. All experimental procedures were performed in two replicates and were repeated two to four times. Mean and SD were calculated with OriginPro 8 (OriginLab, St. Louis, MO, USA).

[5] = Figure 7, read-out: Antiviral activity EC50 (HIV)
[6] = Table S12, CPE, nine-day incubation, read-out: EC50

SMILES | LTR-III ΔTm [2] | other results
COc1ccc(/C=C/C2=NC(=C\c3ccc(O)cc3)/C(=O)N2CCNC(C)=O)cc1 [ccE 4] | 2.8 °C | CC50 [1]: > 25 µM; СС50 (MT4) [1]: > 25 µM; LTR-III (average) [2]: 2,8 °C
COc1ccc(OC)c(C=C2N=C(C)N(C)C2=O)c1 [N 840] | -2.5 °C | CC50 [1]: > 25 µM; СС50 (MT4) [1]: > 25 µM; LTR III stabilization [2]: < 1 °C; LTR-III (average) [2]: -1,55 °C
COc1ccc(C=C2N=C(C)N(CC(N)=O)C2=O)cc1 [SA 120] | -2.1 °C | CC50 [1]: > 25 µM; СС50 (MT4) [1]: > 25 µM; LTR III stabilization [2]: < 1 °C; LTR-III (average) [2]: -1,35 °C
COc1cc(/C=C2N=C(/C=C/c3cc(Br)c(O)c(Br)c3)N(CCN)C\2=O)cc(OC)c1O.Cl [AR559] |  | СС50 (MT4) [1]: > 25 µM; CC50 at 9 days ([3]; MT4 cells): > 25 µM; LTR-III (average) [2]: 1,2 °C
COc1c(O)ccc(C=C2N=C(C=Cc3ccncc3)N(C)C2=O)c1O [N 1069] | 2.7 °C | EC50 [4, 5]: 4 ± 2 µM; EC50 [4, 6]: 4.23 ± 1.75 µM; CC50 [1]: 6 ± 2 µM; СС50 (MT4) [1]: 6.0 ± 2.0 µM; LTR-III (average) [2]: 2,7 °C
COc1cc(O)ccc1C=C1N=C(C=Cc2c(F)c(F)c(F)c(F)c2F)N(C)C1=O [N 1049] | 1.8 °C | EC50 [4, 5]: 2 ± 1 µM; EC50 [4, 6]: 2.1 ± 1.4 µM; CC50 [1]: 5 ± 3 µM; СС50 (MT4) [1]: 5.2 ± 2.5 µM; LTR-III (average) [2]: 1,8 °C
COc1cc(C=CC2=NC(=Cc3ccc(O)cc3)C(=O)N2C)cc(OC)c1O [N 906] | 0.1 °C | CC50 [1]: 7 ± 3 µM; СС50 (MT4) [1]: 6.6 ± 3.1 µM; LTR III stabilization [2]: < 1 °C; LTR-III (average) [2]: 0,1 °C
COc1ccc(C=C2N=C(CC(C)C)C(=O)N(OC)C2=O)cc1 [M 802] | -2.3 °C | CC50 [1]: 7 ± 3 µM; СС50 (MT4) [1]: 6.6 ± 3.1 µM; LTR III stabilization [2]: < 1 °C; LTR-III (average) [2]: -2,3 °C
Cc1cn([C@H]2C[C@H](N=[N+]=[N-])[C@@H](CO)O2)c(=O)[nH]c1=O [AZT, reference compound] |  | EC50 [4, 6]: 0.0071 ± 0.00043 µM; СС50 (MT4) [1]: 8.0 ± 1.5 µM
CCN(CC)C(=S)Oc1ccc(C=C2N=C(c3ccccc3)N(C)C2=O)cc1 [M 2069] | -0.4 °C | 
CCOC(=O)CN1C(=O)C(=Cc2ccccc2)N=C1C [SA 148] | -1.3 °C | 
CC1=NC(=Cc2ccccc2O)C(=O)N1 [N 702.1] | 0 °C | 
COc1ccc(C(=O)Oc2ccccc2)cc1 [M 939] | -1.1 °C | 
COc1cc(O)ccc1C=C1N=C(C)N(C)C1=O [N 865] | 0.8 °C | 
CNC(=O)c1cc(/C=C2N=C(/C=C/c3cccs3)N(C)C\2=O)ccc1O [ccD 1] | 0.7 °C | 
CC1=NC(=Cc2ccc(O)cc2)C(=O)N1CCO [GA 12] | 0.3 °C | 
CC1=NC(=Cc2cccc([N+](=O)[O-])c2)C(=O)N1C [M 1257] | -0.9 °C | 
CC(C)OC(=O)c1noc(=O)c(O)c1-c1ccccc1F [SA 305A] | -0.7 °C | 
COc1ccc(C=C2N=C(C)N(C)C2=O)cc1 [M 1814] | -0.3 °C | 
CN1C(=O)C(=Cc2ccc(O)cc2)N=C1C=Cc1ccccc1 [ccA 1] | 0.6 °C | 
CON1C(=O)C(=Cc2ccc(O)cc2)N=C1C [GA 16] | 0.3 °C | 
CN1C(=O)C(=Cc2ccc(O)cc2)N=C1C=Cc1c(F)c(F)c(O)c(F)c1F [N 893] | -0.4 °C | 
COc1cc(O)ccc1/C=C1N=C(/C=C/N(C)C)N(C)C\1=O [N 1122] | 2.3 °C | CC50 [1]: > 25 µM; СС50 (MT4) [1]: > 25 µM; LTR-III (average) [2]: 2,3 °C
CC1=NC(=Cc2ccc3cc(N4CCCC4)ccc3c2)C(=O)N1C [N 555.3] | 0.7 °C | 
COc1c(O)ccc(/C=C2\N=C(C)N(C)C2=O)c1O [N 1042] | 1.4 °C | 
CC1=NC(=C(N)c2ccccc2)C(=O)N1C [ZS 109] | -0.7 °C | 

SMILES | LTR-III ΔTm [2] | other results
Br.CC1=NC(=Cc2ccc(N(C)C)cc2)C(=O)N1CCN [M 1668] | 0.2 °C | 
CN1C(=O)C(=Cc2ccc(O)cc2)N=C1C=Cc1cc(Cl)c(O)c(Cl)c1 [N 914] | -0.8 °C | 
CC(=O)C1=NC(=Cc2c[nH]c3cccc(C)c23)C(=O)N1C [M 1981] | 1.7 °C | 
CCOc1cc(C=C2N=C(C)N(C)C2=O)ccc1O [M 2486] | 0 °C | 
CNC(=O)c1onc(C(=O)OC(C)C)c1-c1ccccc1 [SA 325A] | -0.5 °C | 
COc1cc(/C=C2N=C(/C=C/c3ccncc3)N(C)C\2=O)c(OC)cc1O [N 1048] | 1.5 °C | 
O=C1NC(=S)SC1=Cc1cc(Cl)c(O)c(Cl)c1 [SAI 127] | -0.2 °C | 
COc1cc(/C=C2N=C(/C=C/c3ccccc3)N(C)C\2=O)ccc1O [M 2499a] | 0.1 °C | 
CN1C(=O)C(=Cc2ccc(C#N)cc2)N=C1Nc1ccccc1 [M 2385a] | -0.1 °C | 
COc1ccc(C=C2N=C(C)N(C)C2=O)c(OC)c1 [M 2379] | 0.1 °C | 
CSC1=NC(=Cc2ccc(O[Si](c3ccccc3)(c3ccccc3)C(C)(C)C)cc2)C(=O)N1C [SA 497] | -0.4 °C | 
CN1C(=O)C(=Cc2ccncc2)N=C1C=Cc1ccncc1 [N 768] | 0.9 °C | 
COc1cc(C=C2SC(=S)NC2=O)cc(OC)c1O [DOM] | -0.6 °C | 
CC(C)C1=NC(=Cc2ccc(O)cc2)C(=O)N1C [GA 06] | -0.7 °C | 
CCN(CC)c1ccc(C=C2N=C(C)N(C)C2=O)c(B(F)F)c1 [M 739] | -0.4 °C | 
COc1ccc(C=C2N=C(Nc3ccc(C#N)cc3)N(C)C2=O)cc1 [SA 179] | 0.7 °C | 
CCC1=NC(=Cc2c[nH]c3ccccc23)C(=O)N1C [SV 14] | 0 °C | 
CCN(CC)c1ccc(C=C2N=C(C)N(CCCCCl)C2=O)cc1 [N 189] | 0.2 °C | 
O=C1/C(=C/c2cccs2)N=C(/C=C/c2ccc(O)cc2)N1CCc1ccc(O)cc1 [MID 161] | -2.6 °C | EC50 ([4]; Human immunodeficiency virus 1, NL43, 216 h, Table S12, CPE, nine-day incubation, read-out: EC50): 7.7 ± 2.2 µM; EC50 ([4]; Human immunodeficiency virus 1, NL43, Figure 7, read-out: Antiviral activity EC50 (HIV)): 8 ± 2 µM; СС50 (MT4) [1]: 17.3 ± 5.7 µM; CC50 at 9 days ([3]; MT4 cells (human T cell leukemia)): 17 ± 5 µM; LTR III stabilization [2]: < 1 °C; LTR-III (average) [2]: -1,7 °C
CC1=NC(=Cc2ccc(C#N)cc2)C(=O)N1C [SA 433] | -0.4 °C | 
CC1=NC(=Cc2ccc(O[Si](c3ccccc3)(c3ccccc3)C(C)(C)C)c(O)c2)C(=O)N1C [M 1620] | 0.4 °C | 
CCOC(=O)c1noc(=O)c(O)c1-c1ccc(OC)cc1 [SA 562B] | -1 °C | 
COc1ccc(C=C2N=C(C)N(CCNC(=O)OC(C)(C)C)C2=O)cc1OC [M 2022e] | 0 °C | 
CCC1=NC(=Cc2ccc(N(CC)CC)cc2)C(=O)N1C [M 747] | 0.6 °C | 
COc1ccc(C=C2N=C(C)N(C3CCCCC3)C2=O)cc1 [ZS 129] | -0.2 °C | 

— publication PMC8533149 (Biomolecules, 2021)
